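Growth conditions: 96-well plates. Treatment: test compound, 48 hours, 5 concentrations. Analysis: linear interpolation between bracketing concentrations; unreached endpoints set to highest concentration. GI50: concentration for 50% inhibition of growth.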 Active and inactive are the calls of the source. Cut-off read from the data, not from the text of the source: active = GI50 up to about 1.1 µM and inactive = higher.
Assays:
Test in all cases: NCI-60 cell line screen, 48 h
T47D = test system: T47D
A498 = test system: A498
HT-29 = test system: HT-29
IGROV-1 = test system: IGROV-1
HCT-15 = test system: HCT-15
OVCAR-3 = test system: OVCAR-3
UACC-62 = test system: UACC-62
SR = test system: SR
A549 = test system: A549
MOLT-4 = test system: MOLT-4
U-251 = test system: U-251
OVCAR-4 = test system: OVCAR-4
UACC-257 = test system: UACC-257
PC-3 = test system: PC-3
ACHN = test system: ACHN
CCRF-CEM = test system: CCRF-CEM
UO-31 = test system: UO-31
Malme-3M = test system: Malme-3M
MCF7 = test system: MCF7
MDA-N = test system: MDA-N

Structure (SMILES) | GI50 (T47D) | GI50 (A498) | GI50 (HT-29) | GI50 (IGROV-1) | GI50 (HCT-15) [µM] | GI50 (OVCAR-3) | GI50 (UACC-62) | GI50 (SR) | GI50 (A549) | GI50 (MOLT-4) | GI50 (U-251) | GI50 (OVCAR-4) | GI50 (UACC-257) | GI50 (PC-3) | GI50 (ACHN) | GI50 (CCRF-CEM) | GI50 (UO-31) | GI50 (Malme-3M) | GI50 (MCF7) | GI50 (MDA-N)
Oc1c(Cl)cc2cc1-c1cc(cc(Cl)c1O)CCc1c(cc(Cl)c(O)c1Cl)-c1cc(Cl)c(c(Cl)c1O)/C=C\2 | 8.41 µM (inactive) | 14.3 µM (inactive) | 11.4 µM (inactive) | 8.99 µM (inactive) | 7.96 | 7.4 µM (inactive) | 8.69 µM (inactive) | 3.91 µM (inactive) | 10.6 µM (inactive) | 30.2 µM (inactive) | 11.6 µM (inactive) | 9.04 µM (inactive) | 13.6 µM (inactive) | 8.3 µM (inactive) | 13.7 µM (inactive) | 3.56 µM (inactive) |  |  |  | 
O=C(O)c1ccn(-c2cccc(-n3ccc(C(=O)O)n3)n2)n1 |  |  | > 100 µM (inactive) | > 100 µM (inactive) | > 100 | > 100 µM (inactive) | > 100 µM (inactive) | > 100 µM (inactive) | > 100 µM (inactive) | > 100 µM (inactive) | > 100 µM (inactive) | > 100 µM (inactive) | > 100 µM (inactive) | > 100 µM (inactive) | > 100 µM (inactive) | > 100 µM (inactive) | > 100 µM (inactive) | > 100 µM (inactive) | > 100 µM (inactive) | > 100 µM (inactive)
COc1ccc(COCCOCc2nc(C#N)c(N)o2)cc1 | > 100 µM (inactive) | > 100 µM (inactive) | > 100 µM (inactive) | > 100 µM (inactive) | > 100 | > 100 µM (inactive) | > 100 µM (inactive) | > 100 µM (inactive) | > 100 µM (inactive) | > 100 µM (inactive) | > 100 µM (inactive) | > 100 µM (inactive) | > 100 µM (inactive) | > 100 µM (inactive) | > 100 µM (inactive) | 29 µM (inactive) | > 100 µM (inactive) |  | > 100 µM (inactive) | 
COc1ccc(Cc2n[nH]c(Nc3ccc(Br)cc3)nc2=O)cc1OC | 94.2 µM (inactive) | > 100 µM (inactive) | > 100 µM (inactive) | > 100 µM (inactive) | > 100 | > 74.3 µM (inactive) | 65.8 µM (inactive) | 30.3 µM (inactive) | > 100 µM (inactive) | 43.1 µM (inactive) | > 100 µM (inactive) | > 100 µM (inactive) | > 100 µM (inactive) | > 92.5 µM (inactive) | > 100 µM (inactive) | 59.2 µM (inactive) | > 76.2 µM (inactive) | 47.2 µM (inactive) | 44.6 µM (inactive) | 
Cc1ccc(NC(=O)CC/C(CC(=O)C(C)(C)C)=N\NC(=O)C[n+]2ccccc2)cc1C |  | > 100 µM (inactive) | 91.2 µM (inactive) | > 100 µM (inactive) | 53 | > 100 µM (inactive) | > 100 µM (inactive) | 78.5 µM (inactive) | > 100 µM (inactive) | 51.2 µM (inactive) | 87.9 µM (inactive) | > 100 µM (inactive) | > 100 µM (inactive) |  | > 100 µM (inactive) | 45.3 µM (inactive) | > 100 µM (inactive) | > 100 µM (inactive) |  | 
COc1ccc(/N=N/C(=NNC(=O)c2ccc(C)cc2)c2ccc(N(C)C)cc2)cc1 |  | 52 µM (inactive) | 30.3 µM (inactive) | 59.6 µM (inactive) | 32.4 | 28.4 µM (inactive) | 25.1 µM (inactive) | 23.1 µM (inactive) | 48.3 µM (inactive) | 20.9 µM (inactive) | 63.7 µM (inactive) | 31.8 µM (inactive) | 33.3 µM (inactive) | 57.7 µM (inactive) | 35.1 µM (inactive) | 14 µM (inactive) | 52.2 µM (inactive) | 34.6 µM (inactive) | 17.1 µM (inactive) | 23.8 µM (inactive)
CCOP(=O)(OCC)/C(=C\n1c(=S)[nH]c2cc(C)ccc21)C(=O)OC | > 100 µM (inactive) | > 100 µM (inactive) | > 100 µM (inactive) | > 100 µM (inactive) | > 100 | > 100 µM (inactive) | > 100 µM (inactive) |  | > 100 µM (inactive) | > 100 µM (inactive) | > 100 µM (inactive) | > 100 µM (inactive) | > 100 µM (inactive) |  | > 100 µM (inactive) |  | > 100 µM (inactive) |  | > 100 µM (inactive) | > 100 µM (inactive)
O=P1(c2ccccc2)c2ccccc2-c2ccccc21 |  |  |  | > 100 µM (inactive) | > 100 | 71 µM (inactive) | 82.2 µM (inactive) |  | > 100 µM (inactive) | 47.5 µM (inactive) |  |  | > 100 µM (inactive) | 55.3 µM (inactive) |  | 55.5 µM (inactive) | > 100 µM (inactive) |  | > 100 µM (inactive) | 97.7 µM (inactive)
CC1(C)OCC(C2OC(OC(=O)c3ccc([N+](=O)[O-])cc3)C3OC(C)(C)OC23)O1 (centres undefined) |  | > 100 µM (inactive) | > 100 µM (inactive) | > 100 µM (inactive) | > 100 | > 100 µM (inactive) | > 100 µM (inactive) | > 100 µM (inactive) | > 100 µM (inactive) | > 100 µM (inactive) | 49 µM (inactive) | > 100 µM (inactive) | > 100 µM (inactive) | > 100 µM (inactive) | 60.5 µM (inactive) | > 100 µM (inactive) | 66.1 µM (inactive) | > 100 µM (inactive) | > 100 µM (inactive) | > 100 µM (inactive)
CCCCCCCCCCCCCCCCCCNc1ccn(C2OC(COP(=O)(O)OC3CC(n4cc(F)c(=O)[nH]c4=O)OC3COP(=O)(O)OCC3OC(n4ccc(N)nc4=O)C(O)C3O)C(O)C2O)c(=O)n1 (centres undefined) | 24.5 µM (inactive) | 20.8 µM (inactive) | 13.7 µM (inactive) | 15.2 µM (inactive) | 12.2 | 30.5 µM (inactive) | 1.1 µM (active) | 0.407 µM (active) | 0.0906 µM (active) | 0.611 µM (active) | 7.67 µM (inactive) | 41.7 µM (inactive) | 22.6 µM (inactive) | 7.14 µM (inactive) | 0.143 µM (active) | 0.0206 µM (active) | 11.5 µM (inactive) | > 46.9 µM (inactive) | 0.276 µM (active) | 
O=C1CCCC2=C1CC1=C(CCCC1=O)N2c1ccccc1C(=O)O |  | > 100 µM (inactive) | > 100 µM (inactive) | > 100 µM (inactive) | > 100 | > 100 µM (inactive) | > 100 µM (inactive) | > 100 µM (inactive) | > 100 µM (inactive) | > 100 µM (inactive) | > 100 µM (inactive) | > 100 µM (inactive) |  | > 100 µM (inactive) | > 100 µM (inactive) | > 100 µM (inactive) | > 100 µM (inactive) |  | > 100 µM (inactive) | 
c1ccc([P+](CCSCCSCC[P+](c2ccccc2)(c2ccccc2)c2ccccc2)(c2ccccc2)c2ccccc2)cc1 | > 100 µM (inactive) | > 100 µM (inactive) | > 100 µM (inactive) | > 100 µM (inactive) | > 100 | > 100 µM (inactive) | 64.4 µM (inactive) |  | > 100 µM (inactive) | > 100 µM (inactive) | 24.7 µM (inactive) | > 100 µM (inactive) | > 100 µM (inactive) |  | > 100 µM (inactive) |  | > 100 µM (inactive) |  | 40.5 µM (inactive) | > 100 µM (inactive)
